This note sets out measurements from patent US5158952A, “3-[2-[4-(6-fluoro-1,2-benzisoxozol-3-yl)-1-piperidinyl]ethyl]-6,7,8,9 tetrahydro-9-hydroxy-2-methyl-4H-pyrido [1,2-a]pyrimidin-4-one, compositions and method of use” (Janssen Pharmaceutica N.V., priority 1989, dated 1992).

SMILES strings stand for the structures.

Common to all, as to format: in vivo
For one experiment, the system named is norepinephrine. In words: combined APO, TRY, NOR test in rats: norepinephrine. The following applies: for ED50: Rattus norvegicus. From the text: (§1) The antipsychotic activity of the subject compounds is evidenced by the experimental data obtained in at least one of two different test procedures, viz. the combined apomorphine (APO), tryptamine (TRY) and norepinephrine (NOR) test in rats, and the apomorphine test in dogs. Said combined apomorphine, tryptamine and norepinephrine test is described in Ach. int. Pharmacodyn., 227, 238-253 (1977) and provides an empirical evaluation of the relative specificity with which drugs may effect particular neurotransmitter systems centrally (CNS) as well as peripherally. […] Said apomorphine test in dogs is described in Arzneim.-Forsch. (Drug Res.), 9, 765-767 (1959) and provides a measure of the duration of action of the tested compounds.

Experiment [1] deals with serotonin. In words: combined APO, TRY, NOR test in rats: tryptamine hyperaemia (peripheral). The following applies: for ED50: Rattus norvegicus.
Description: as §1

Experiment [2] relates to dopamine. In words: combined apomorphine (APO), tryptamine (TRY) and norepinephrine (NOR) test in rats: apomorphine. The following applies: for ED50: Rattus norvegicus.
Description: as §1

Experiment [3] concerns dopamine. In words: apomorphine test in dogs (duration of action). The following applies: for (APO)-dog test, ED50, 4 hr: 240 min; for (APO)-dog test, ED50, 16 hr: 960 min; for ED50: Canis lupus familiaris.
Description: The compounds of formula (I) show the additional advantage of being eliminated rather slowly from the body and thus of being long acting. This can be evidenced, for example, by measuring the plasma levels after oral administration to dogs and by the long acting antiemetic effect exerted by the present compounds on dogs challenged with the dopamine agonist apomorphine. Especially the compounds of formula (I) wherein R^3 is a higher alkylcarbonyloxy radical have a long duration of action. […] Consequently, the present compounds allow for a more efficient therapy: the slow elimination facilitates maintaining a stable plasma concentration at a non-toxic, effective level and the reduction in the number of administrations may be expected to result in better compliance of the subject to be treated with the prescribed medication.
as §1

Experiment [4] has as its system serotonin. In words: combined APO, TRY, NOR test in rats: tryptamine convulsions (central). The following applies: for ED50: Rattus norvegicus.
Description: as §1

[5] abbreviates: 1 h, read-out: (APO)-dog test, ED50, 1 hr.

Usually ED50 stands for the dose at which the effect has come halfway, by size or by number of responders. Regarding `Cc1nc2n(c(=O)c1CCN1CCC(c3noc4cc(F)ccc34)CC1)CCCC2O` (single isomer, unassigned; (+)) [Compound 2, (+)-3-[2-[4-(6-fluoro-1,2-benzisoxazol-3-yl)-1-piperidinyl]ethyl]-6,7,8,9-tetrahydro-9-hydroxy-2-methyl-4H-pyrido[1,2-a]-pyrimidin-4-one], the ED50 was found to be 1.25 mg/kg in the experiment with norepinephrine, 0.31 mg/kg in the experiment with dopamine [2] and 0.015 mg/kg with dopamine [3] (setting [5]). In the experiment on serotonin [1], the “(TRY)-hyperaemia ED50” value is 0.00031 mg/kg. Also, in the experiment on dopamine [3], the “(APO)-dog test, ED50, 4 hr” value is 0.03 mg/kg. The “(APO)-dog test, ED50, 16 hr” value with dopamine [3] was 0.06 mg/kg. The “(TRY)-convulsions ED50” value with serotonin [4] is 0.08 mg/kg.
With `Cc1nc2n(c(=O)c1CCN1CCC(c3noc4cc(F)ccc34)CC1)CCCC2O` (single isomer, unassigned; (-)) [Compound 3, (-)-3-[2-[4-(6-fluoro-1,2-benzisoxazol-3-yl)-1-piperidinyl]-ethyl]-6,7,8,9-tetrahydro-9-hydroxy-2-methyl-4H-pyrido[1,2-a]-pyrimidin-4-one], in the experiment on norepinephrine, the “(NOR) ED50” value is 0.63 mg/kg. The “(TRY)-hyperaemia ED50” value in the experiment on serotonin [1] is on record as 0.00063 mg/kg. The “(APO) ED50” value with dopamine [2] came to 0.31 mg/kg. Besides, the “(APO)-dog test, ED50, 1 hr” value with dopamine [3] (1 hr, 60 min) came to 0.008 mg/kg. For the same compound, in the experiment on dopamine [3], the “(APO)-dog test, ED50, 4 hr” value is on record as 0.007 mg/kg and the “(APO)-dog test, ED50, 16 hr” value worked out at 0.015 mg/kg. The “(TRY)-convulsions ED50” value in the experiment with serotonin [4] was 0.31 mg/kg.
Turning to `Cc1nc2n(c(=O)c1CCN1CCC(c3noc4cc(F)ccc34)CC1)CCCC2O` (stereo not drawn) [Compound 1, 3-[2-[4-(6-fluoro-1,2-benzisoxazol-3-yl)-1-piperidinyl]ethyl]-6,7,8,9-tetrahydro-9-hydroxy-2-methyl-4H-pyrido[1,2-a]pyrimidin4-one], the ED50 amounted to 0.08 mg/kg in the experiment with norepinephrine; 0.002 mg/kg with serotonin [1]; 0.25 mg/kg in the experiment with dopamine [2]; 0.015 mg/kg in the experiment on dopamine [3] (setting [5]); 0.015 mg/kg with dopamine [3] (4 h, read-out: (APO)-dog test, ED50, 4 hr); 0.015 mg/kg with dopamine [3] (16 h, read-out: (APO)-dog test, ED50, 16 hr). Also, in the experiment with serotonin [4], the median effective dose (ED50) amounted to 0.31 mg/kg.
Consider `CC(=O)OC1CCCn2c1nc(C)c(CCN1CCC(c3noc4cc(F)ccc34)CC1)c2=O` (stereo not drawn) [Compound 4, 3-[2-[4-(6-fluoro-1,2-benzisoxazol-3-yl)-1-piperidinyl]ethyl]-6,7,8,9-tetrahydro-2-methyl-4-oxo-4H-pyrido[1,2-a]pyrimidin-9-ol acetate(ester)], for which the ED50 worked out at 0.00031 mg/kg in the experiment with serotonin [1], 0.31 mg/kg in the experiment with dopamine [2], 0.015 mg/kg in the experiment on dopamine [3] (setting [5]) and 0.08 mg/kg with serotonin [4].
`CCCC(=O)OC1CCCn2c1nc(C)c(CCN1CCC(c3noc4cc(F)ccc34)CC1)c2=O` (stereo not drawn) [Compound 5, [3-[2-[4-(6-fluoro-1,2-benzisoxazol-3-yl)-1-piperidinyl]ethyl]-6,7,8,9-tetrahydro-2-methyl-4-oxo-4H-pyrido[1,2-a]pyrimidin-9-yl]butanoate]: the ED50 in the experiment on norepinephrine worked out at 0.16 mg/kg; in the experiment with serotonin [1], 0.00125 mg/kg; in the experiment on dopamine [2], 0.31 mg/kg; in the experiment with dopamine [3] (setting [5]), 0.008 mg/kg; in the experiment on serotonin [4] it was 0.31 mg/kg.
